Laboratory results as given in US20240174690A1, “ANNULATED 2-AMINO-3-CYANO THIOPHENES AND DERIVATIVES FOR THE TREATMENT OF CANCER” (BOEHRINGER INGELHEIM INTERNATIONAL GMBH, priority 2021, published 2024).
Like-named read-outs stand apart in the source and are kept apart here.

Legend:
[1] = tested on: SK-CO-1 cells; test: SK-CO-1 CTG proliferation assay (120 h) (CRC, G12V); format: cell-based; conditions: Homo sapiens; SK-CO-1 cells (CRC, G12V), CTG 120 h
In short: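 SK-CO-1 colorectal cells (KRAS G12V), 500 per well in EMEM + 10% FCS, dosed with compound the day after seeding and grown 120 h at 37 °C. Viability by CellTiter-Glo luminescence as percent of DMSO control; IC50 from four-parameter non-linear regression.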

[2] = Metabolic (microsomal) stability assay, human liver microsomes (HLM); format: in vitro ADME; conditions: predicted clearance as percent of liver blood flow, 1 μM
In short: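 LC-MS/MS tracked parent disappearance at 0, 5, 15, 30 and 60 min in NADPH-initiated incubations with 1 mg/mL human microsomal protein and 1 μM compound at 37°C, pH 7.5. First-order fits gave intrinsic clearance, which was scaled up and reported as % QH. NADPH-free controls were also run.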

[3] = Plasma protein binding assay (PPB), equilibrium dialysis, 10% FCS in PBS; format: in vitro ADME; conditions: bovine, read-out: PPB 10% FCS (% fu)
In short: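 Equilibrium dialysis (5-10 kg/mol cut-off membrane) of 1-10 μmol/L test compound in 10% FCS/PBS against PBS with or without dextran, 3-5 h at 37° C. Compound in each chamber quantified by LC-MS after protein precipitation; fu calculated from Cserum and Cbuffer.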

[4] = tested on: KRAS G12V-dependent Ba/F3 cells; test: Ba/F3 proliferation assay, KRAS G12V; format: cell-based; conditions: Mus musculus, BaF3, 72 h, AlamarBlue;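 note: proliferation IC50 in KRAS G12V-dependent Ba/F3 cells read by AlamarBlue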
In short: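 Transforming KRAS G12 mutants replaced IL-3 dependence in retrovirally engineered Ba/F3 cells, with puromycin omitted about ten days before testing. Growth under compound was quantified with an AlamarBlue fluorescent viability stain, in duplicate, by curve fitting.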

[5] = tested on: NCI-H358 cells; test: NCI-H358 CTG proliferation assay (120 h) (NSCLC, G12C); format: cell-based, human; conditions: Homo sapiens
In short: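 NCI-H358 cells (KRAS G12C) were seeded at 2000/well (assay 1) or 200/well (assay 2) in RPMI-1640 + 10% FCS and dosed with a logarithmic series, DMSO-normalized. After 120 h, viability was read by CellTiter-Glo luminescence as percent of DMSO control, with a T0 read at dosing. IC50 came from a four-parameter fit.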

[6] = assay 2, CTG, read-out: H358 (assay 2) IC50
[7] = assay 1, CTG, read-out: H358 (assay 1) IC50

Structure (SMILES)	IC50 [1] [nM]	HLM QH [2] [%]	fraction unbound [3]	IC50 [4] [nM]	IC50 [5, 6] [nM]	IC50 [5, 7] [nM]
C[C@H](Oc1cc(N2C[C@H](C)NC3(CC3)C2)nc(-c2noc3c2CCC[C@@]32CCCc3sc(N)c(C#N)c32)n1)[C@@H]1C[C@@H](F)CN1C [II-18]	444	58	0.11	438	160	
C[C@H](Oc1cc(N2CC[C@@H](N(C)C)C2)nc(-c2noc3c2CCC[C@@]32CCCc3sc(N)c(C#N)c32)n1)[C@@H]1CCCN1C [II-47]	600	<24	0.34	164	2050	
CO[C@H]1CCN(C)[C@@H]1[C@H](C)Oc1cc(-n2ccc(C(=O)N[C@H]3CCOC3)n2)nc(-c2onc3c2CCC[C@@]32CCCc3sc(N)c(C#N)c32)n1 [I-54]	7	52	0.09	1	4	
C[C@H](Oc1cc(-n2ccc(C(=O)N3CCCC3)n2)nc(-c2noc3c2CCC[C@@]32CCCc3sc(N)c(C#N)c32)n1)[C@@H]1CCCN1C [II-19]	11	30	0.04	3	2	17
C[C@H](Oc1cc(-c2ccn(C3COC3)n2)nc(-c2onc3c2CCC[C@@]32CCCc3sc(N)c(C#N)c32)n1)[C@@H]1CCCN1C [I-34]	84	<24	0.54	14	76	
C[C@H](Oc1cc(-n2ccnc2)nc(-c2onc3c2CCC[C@@]32CCCc3sc(N)c(C#N)c32)n1)[C@@H]1CCCN1C [I-20]	185	30	0.58	10	287	
C[C@H](Oc1cc(Cl)nc(-c2onc3c2CCC[C@@]32CCCc3sc(N)c(C#N)c32)n1)[C@@H]1CCCN1C [I-1]	418	79	0.53	43	577	
C[C@H](Oc1cc(N2CCN(C)C3(CC3)C2)nc(-c2onc3c2CCC[C@@]32CCCc3sc(N)c(C#N)c32)n1)[C@@H]1C[C@@H](F)CN1C [I-39]	2070	39	0.07	895	1450	
[2H]C([2H])([2H])N1C[C@H](F)C[C@H]1[C@H](C)Oc1cc(N2CCNC3(CC3)C2)nc(-c2noc3c2CCC[C@@]32CCCc3sc(N)c(C#N)c32)n1 [II-208]	398	48	0.15	166	99	
CO[C@@H]1C[C@@H]([C@H](C)Oc2cc(N3CCN(C)C4(CC4)C3)nc(-c3onc4c3CCC[C@@]43CCCc4sc(N)c(C#N)c43)n2)N(C)C1 [I-50]	2050	44	0.14	811	733	
C[C@H](Oc1cc([C@@H]2CCOC2)nc(-c2onc3c2CCC[C@@]32CCCc3sc(N)c(C#N)c32)n1)[C@@H]1CCCN1C [I-22]	20	37	0.38	9	10	31
CO[C@H]1CCN(C)[C@@H]1[C@H](C)Oc1cc(-n2ccc(CC(=O)NC(C)C)n2)nc(-c2onc3c2CCC[C@@]32CCCc3sc(N)c(C#N)c32)n1 [I-48]	14	51	0.12	4	4	
COCCNC(=O)c1ccn(-c2cc(O[C@@H](C)[C@@H]3[C@@H](OC)CCN3C)nc(-c3onc4c3CCC[C@@]43CCCc4sc(N)c(C#N)c43)n2)n1 [I-55]	9	56	0.06	1	5	
C[C@H](Oc1cc(N2CCNC3(CCC3)C2)nc(-c2noc3c2CCC[C@@]32CCCc3sc(N)c(C#N)c32)n1)[C@@H]1CCCN1C [II-40]	488	<24	0.53	456	1300	
CNC(=O)c1ccn(-c2cc(O[C@@H](C)[C@@H]3CCCN3C)nc(-c3noc4c3CCC[C@@]43CCCc4sc(N)c(C#N)c43)n2)n1 [II-20]	9	<24	0.14	2	2	6
